Measured values from patent US20230014226A1, “NEW COMPOUNDS AND METHODS” (BenevolentAI Bio Limited, priority 2019, published 2023).
Entries after “also recorded” stand apart in the source; their conditions may differ.

Experiments:
[1] = target: T1, recombinant human P450 enzyme 1A1 (Homo sapiens, UniProt P04798); assay: Formation of reactive metabolites (glutathione adduct) by CYP1A1 with human liver cytosol; type: in vitro ADME; conditions: human liver cytosol + recombinant CYP1A1, NADPH and GSH
T1 construct: host or cells: Bacterial membranes (bactosomes), inferred from the named control preparation
T1 sequence (P04798 1-512): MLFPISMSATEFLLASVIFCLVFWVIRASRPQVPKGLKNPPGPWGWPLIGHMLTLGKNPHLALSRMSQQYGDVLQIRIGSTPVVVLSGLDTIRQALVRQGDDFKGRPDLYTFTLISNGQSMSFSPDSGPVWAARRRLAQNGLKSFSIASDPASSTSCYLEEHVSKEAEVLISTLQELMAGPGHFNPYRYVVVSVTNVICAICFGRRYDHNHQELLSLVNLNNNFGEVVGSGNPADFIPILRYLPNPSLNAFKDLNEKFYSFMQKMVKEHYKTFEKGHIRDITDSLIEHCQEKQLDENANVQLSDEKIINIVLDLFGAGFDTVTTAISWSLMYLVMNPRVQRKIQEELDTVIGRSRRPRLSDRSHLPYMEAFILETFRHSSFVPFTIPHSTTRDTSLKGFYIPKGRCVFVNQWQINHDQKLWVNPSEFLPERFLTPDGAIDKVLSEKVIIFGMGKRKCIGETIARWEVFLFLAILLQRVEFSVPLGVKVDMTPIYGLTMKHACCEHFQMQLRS
Description: Investigations into the potential for test compound to form a reactive metabolite were performed using an adapted method detailed by De Lin et al. Briefly, test compound was pre-incubated (n=2; 50 μM substrate concentration) at 37° C. for 5 min with mixed-gender human liver cytosol (1 mg/mL total protein concentration) in 100 mM phosphate buffer (pH 7.4) with 5 mM MgCl2 in the presence of recombinant human P450 enzyme 1A1 (100 nM), in the presence and absence of 5 mM glutathione. At the end of the pre-incubation period, 2 mM NADPH was added to each sample and the mixture incubated at 37° C. for 60 min. Immediately following the addition of NADPH and after the 60 min incubation period, aliquots of each sample were mixed with MeCN (containing internal standard) to terminate the reaction and precipitate the proteins.
Samples were mixed, centrifuged and following appropriate dilution, supernatants were analysed by LC-MS utilising a high-resolution mass spectrometer to perform metabolite identification and characterisation analysis.

[2] = test system: HUVEC (human umbilical venous endothelial cells); assay: HUVEC Tube Formation assay; type: cell-based; conditions: 18 h incubation, read-out: Tube formation GI50
Description: HUVEC (human umbilical venous endothelial cells, 1.5×10^4/well, ATCC CRL-1730) are placed in an earlier prepared 96-well plate. Test substance and/or vehicle is then added to each well in a final concentration of 0.4% DMSO in growth medium under an atmosphere of 5% CO2 at 37° C. After an 18 h incubation period, morphology of the endothelial cell tubes, which resemble a capillary-like network, are evaluated by a confocal high-content imaging system. Disruption (anti-angiogenesis) of total tube length is measured from each photograph and determined relative to the vehicle control group. […] Compounds are screened at 30, 3, 0.3, 0.03 and 0.003 μM (or μg/mL) in triplicate.

## Cc1ccc(C(=O)Nc2cn(C(C)C)cn2)cc1C#Cc1cccnc1 [Example 25, N-(1-isopropylimidazol-4-yl)-4-methyl-3-[2-(3-pyridyl)ethynyl]benzamide]
[1]; 50 μM, 60 min
  formation of direct glutathione adduct: does not form a glutathione adduct; also recorded: no products of direct glutathione conjugation were observed
[1]
  metabolites identified as products of oxidation and glutathione conjugation: Two very minor metabolites
[2]
  GI50: > 10 µM
